According to US20260151457A1, “Peptides and Fragments for Treating Diabetes and Associated Metabolic Diseases” (Betavive Ltd., priority 2024, published 2026):
Where no end group is shown, it is not given here.

How the values were obtained:
[1] = tested on: β-MIN6 cells; assay: Insulin secretion of β-MIN6 cells following glucose induction; type: cell-based, mouse; conditions: IGF-2 5 nM, 20 nM, 80 nM, 1 week treatment
From the text: β-MIN6 cells serve as an in vitro model of mouse pancreatic islets. β-MIN6 cells were used as an in vitro model to measure the effects of treatment with IGF-2.

[2] = tested on: STZ-treated mouse islets; assay: MTT viability of STZ-treated mouse islets; type: cell-based; conditions: increasing concentrations
From the text: Yellow dye MTT is converted to a purple dye by mitochondrial reductase in viable cells. Therefore, the amount of purple dye present determined by measuring optical density of cells at 570 nm serves as a measurement of cell viability.

[3] = tested on: STZ-treated mouse islets; assay: Insulin secretion from STZ-treated mouse islets; type: cell-based; conditions: islets treated with 2.5 mM STZ; IGF-2 50 nM and 500 nM, GLP-1 100 nM and 1000 nM; 48 hours
Method: Mouse islet cells were treated with 2.5 mM STZ and subsequently treated with either IGF-2 (FA) at 50 nM and 500 nM, or with GLP-1 at 100 nM and 1000 nM.

[4] = tested on: Human pancreatic islets; assay: Peptides efficacy on human pancreatic islets (IHC, digital quantitative pathological analysis); type: cell-based
Method: Human pancreatic islets, obtained from Prodo Labs, were cultured in Prodo Labs PIM(S) media and maintained at 37° C. with 5% CO2 to ensure optimal viability. The islets were treated with IGF-2 (500 nM) and Peptide-20 (1000 nM) for five days under continuous exposure. After treatment, islets were collected and fixed in 4% paraformaldehyde (PFA) to preserve cellular and structural integrity. The samples were then processed for formalin-fixed paraffin-embedded (FFPE) histology. Sectioned islets were stained using immunohistochemistry (IHC) with specific markers to assess islet integrity, β-cell function, and proliferation. Microscopic Digital Quantitative Pathological Analysis provided critical insights into the effects of IGF-2 and Peptide-20 on islet structure and function. […] These findings establish Peptide-20 as a strong candidate for novel diabetes therapies aimed at restoring islet function and reversing β-cell loss. […] Their ability to enhance β-cell survival and proliferation positions them as strong candidates for the development of novel regenerative therapies, paving the way for innovative drug development aimed at reversing diabetes and restoring endogenous insulin production.

[5] = tested on: db/db mice; assay: Peptide efficacy on type 2 diabetes (db/db mice): pancreas H&E and IHC; type: in vivo
Method: Male db/db mice (BKS.Cg-Dock7m+/+Leprdb/J) were administered Peptide 16 and Peptide 20 via intraperitoneal injection once daily for 35 consecutive days. Peptide 16 was administered at a dose of 5.5 mg/kg, while Peptide 20 was administered at 3.9 mg/kg. The control group received saline. Throughout the treatment period, mice were monitored for body weight and behavioral changes. At the end of the study, mice were sacrificed, and blood samples were collected for C-peptide level measurement. The pancreas was harvested for pathological analysis, including hematoxylin and eosin (H&E) staining and immunohistochemistry (IHC). Results appear in FIG. 37. All pancreatic tissue sections were stained with hematoxylin and eosin (H&E). […] Results appear in FIG. 38.

[6] = tested on: mice; assay: Blood glucose concentration kinetics of IGF-2 vs. insulin in a glucose tolerance test; type: in vivo
Method: IGF-2 therefore provides an effect that mimics insulin within the body, and that effect is referred to herein as an “insulinomimetic” effect. […] More specifically, when 1 unit of insulin per kg was administered, the recovery in glucose levels began after two hours. But when 800 μg/kg of IGF-2 was administered, the recovery in glucose levels began after six hours. […] In this example, administering IGF-2 can provide better results than administering insulin with respect to blood glucose levels, even when only a single dose was used. Without being bound by this theory, it is possible that the IGF-2 combines with a number of binding proteins in the blood and its active free form is then released slowly from the complex.

[7] = Peptide-20 1000 nM for five days

Substance: GLP-1 (HAEGTFTSDVSSYLEGQAAKEFIAWLVKGR; ends and bridges not checked; UniProt P01275 98-127, looked up) [a satiety hormone, comparator in vitro, reference compound]
- Insulin secretion following glucose induction [1]: does not increase insulin secretion
- Mouse islet viability (MTT, optical density at 570 nm) [2]: did not significantly increase mouse islet viability
- Insulin secretion [3]: did not significantly increase insulin secretion

Substance: RSRGIVEECCFRICDLALLE [Peptide 20]
- Pancreatic islet regeneration, integrity and function ([4]; IGF-2 500 nM, Peptide-20 1000 nM, five days): enhances human pancreatic islet regeneration and function
- Islet area [4, 7]: significant increase
- Total insulin signal intensity [4, 7]: significant increase
- β-cell proliferation [4, 7]: significant increase
- Islets of Langerhans in the pancreas (IHC) ([5]; Peptide 20 3.9 mg/kg i.p. once daily for 35 days): regenerating the islets of Langerhans
- Islets of Langerhans in pancreatic tissue sections (H&E) ([5]; i.p. once daily for 35 days, Peptide 16 5.5 mg/kg, Peptide 20 3.9 mg/kg): regenerating the islets of Langerhans

Substance: insulin [reference compound]
- Glucose level after administration ([6]; glucose tolerance test in mice): decreased
- Time after which the recovery in glucose levels began ([6]; insulin 1 unit per kg, IGF-2 800 μg/kg, single dose): two
